Experimental data reported in patent US8129398B2 (priority 2008, dated 2012).
Read-outs that look alike come from different tables or passages of the source.

Assays:
[1] = molecular target: T1, HIV-integrase (Human immunodeficiency virus type 1 group M subtype B, UniProt P12497); test: HIV-Integrase Inhibition Activity (SPA bead integration assay with P33 labeled target DNA); assay type: biochemical; details: for IC50: recombinant integrase, class symbols, read-out: in vitro activity; for Ki: representative compounds
T1 construct: Recombinant integrase (0.26 ng) was incubated with the beads
In short: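 Biotinylated substrate DNA on streptavidin SPA beads loaded with recombinant integrase (90 min, 37° C), washed, then inhibitor plus 0.1 fmol P33-labeled target DNA added. Reaction stopped with 10 mM EDTA; integration measured as CPM by scintillation, giving IC50 ranks.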

[2] = tested on: recombinant NL-Rluc virus; test: Inhibition of HIV replication (recombinant NL-Rluc virus, Renilla luciferase reporter); assay type: cell-based
[3] = read-out: Antiviral activity, NL-Rluc virus, serum condition not specified (10% FBS, 15 mg/ml human serum albumin/10% FBS or 40% human serum/5% FBS), class symbols

Row | SMILES | IC50 [1] [nM] | EC50 [2, 3] [nM] | Ki [1] [nM] | EC50 ([2]; Human immunodeficiency virus 1) [nM]
1 | CS(=O)(=O)N1CCC[C@H]1C(=O)NC12CCC(CC1)Cn1c2nc(C(=O)NCc2ccc(F)cc2)c(O)c1=O [Example 256, 7,10-Ethanopyrimido[1,2-a]azepine-2-carboxamide, N-[(4-fluorophenyl)methyl]-4,6,7,8,9,10-hexahydro-3-hydroxy-10-[[[(2S)-1-(methylsulfonyl)-2-pyrrolidinyl]carbonyl]amino]-4-oxo-] | < 10 | < 10 | – | –
2 | Cc1cc(CNC(=O)c2nc3n(c(=O)c2O)CC2CCC3(NC(=O)C3(C(F)(F)F)CC3)CC2)ccc1F [Example 303, 7,10-Ethanopyrimido[1,2-a]azepine-2-carboxamide, N-[(4-fluoro-3-methylphenyl)methyl]-4,6,7,8,9,10-hexahydro-3-hydroxy-4-oxo-10-[[[1-(trifluoromethyl)cyclopropyl]carbonyl]amino]-] | > 100 | – | 180 | 192
3 | O=C(NC12CCC(CC1)Cn1c2nc(C(=O)NCc2ccc(F)cc2)c(O)c1=O)c1cccnc1 [Example 33, N-(4-Fluorobenzyl)-3-hydroxy-4-oxo-10-((3-pyridinylcarbonyl)amino)-4,6,7,8,9,10-hexahydro-7,10-ethanopyrimido[1,2-a]azepine-2-carboxamide] | < 10 | – | 1 | 2
4 | O=C(NC12CCC(Cn3c1nc(C(=O)NCc1ccc(F)cc1)c(O)c3=O)OC2)OCc1ccccc1 (stereo not drawn) [Example 219, Benzyl (2-((4-fluorobenzyl)carbamoyl)-3-hydroxy-4-oxo-6,7,8,9-tetrahydro-7,10-(epoxymethano)pyrimido[1,2-a]azepin-10(4H)-yl)carbamate] | 10 to 100 | – | 12 | 37
5 | CN(C)C(=O)C(=O)NC12CCC(Cn3c1nc(C(=O)NCc1ccc(F)cc1)c(O)c3=O)C2 (single isomer, unassigned) [Example 412, Ethanediamide, N′-[2-[[[(4-fluorophenyl)methyl]amino]carbonyl]-6,7,8,9-tetrahydro-3-hydroxy-4-oxo-7,11-methanopyrimido[1,2-a]azepin-10(4H)-yl]-N,N-dimethyl-] | < 10 | < 10 | – | –
6 | Cc1noc(C)c1S(=O)(=O)NC12CCC(CC1)Cn1c2nc(C(=O)NCc2ccc(F)cc2)c(O)c1=O [Example 392] | > 100 | – | 467 | 618
7 | Cc1cc(CNC(=O)c2nc3n(c(=O)c2O)CC2CCC3(NS(=O)(=O)CC3CC3)CC2)ccc1F [Example 306, 7,10-Ethanopyrimido[1,2-a]azepine-2-carboxamide, 10-[[(cyclopropylmethyl)sulfonyl]amino]-N-[(4-fluoro-3-methylphenyl)methyl]-4,6,7,8,9,10-hexahydro-3-hydroxy-4-oxo-] | > 100 | – | 860 | 385
8 | O=C(NCc1ccc(F)cc1)c1nc2n(c(=O)c1O)CC1CCC2(NS(=O)(=O)C2CC2)CC1 [Example 41, 10-((Cyclopropylsulfonyl)amino)-N-(4-fluorobenzyl)-3-hydroxy-4-oxo-4,6,7,8,9,10-hexahydro-7,10-ethanopyrimido[1,2-a]azepine-2-carboxamide] | < 10 | – | 1 | < 1
9 | CC(=O)NC12CCC(CC1)Cn1c2nc(C(=O)NCc2ccc(F)cc2-n2ncnc2C)c(O)c1=O [Example 38, 10-(Acetylamino)-N-(4-fluoro-2-(5-methyl-1H-1,2,4-triazol-1-yl)benzyl)-3-hydroxy-4-oxo-4,6,7,8,9,10-hexahydro-7,10-ethanopyrimido[1,2-a]azepine-2-carboxamide] | < 10 | – | 9 | 37
10 | CC(=O)N1CCC[C@H]1C(=O)NC12CCC(CC1)Cn1c2nc(C(=O)NCc2ccc(F)cc2)c(O)c1=O [Example 255, 7,10-Ethanopyrimido[1,2-a]azepine-2-carboxamide, 10-[[[(2S)-1-acetyl-2-pyrrolidinyl]carbonyl]amino]-N-[(4-fluorophenyl)methyl]-4,6,7,8,9,10-hexahydro-3-hydroxy-4-oxo-] | < 10 | < 10 | – | –
